# Measured values as given in ChEMBL document CHEMBL1128893, “Synthesis and characterization of N-(acenaphth-5-yl)-N'-(4-methoxynaphth-1-yl)guanidine as a glutamate release inhibitor and potential anti-ischemic agent” (Bioorg Med Chem Lett, 1995).
# pIC50: −log10 of the molar value.
# How the values were obtained:
# [1] = target: Sodium channel alpha subunits; brain (Types I, II, III) (Rattus norvegicus) (UniProt P04775+P04774+P08104); conditions: at 3 µM
# Description: Inhibition of veratridine-induced glutamate release, blockade of rat brain synaptosome voltage-gated sodium channels at 3 uM
# [2] = target: T1, Sodium channel protein type 2 subunit alpha (Homo sapiens, UniProt Q99250); assay: (§1) Blockade of synaptosomal sodium channels, inhibition of [14C]guanidinium ion flux into CHO cells expressing Type II sodium channel; assay type: functional, cell-based
# [3] = Inhibition of 45 [Ca2+] flux into rat brain synaptosomes depolarized by elevated potassium concentrations; assay type: functional, subcellular
# Rattus norvegicus = species: Rattus norvegicus; assay: Compound was evaluated for the inhibition of K+ -evoked glutamate release through block of voltage-gated [Ca2+] -channels, in the rat brain synaptosomal preparations; assay type: functional, organism-based
# [4] = target: T1, Sodium channel protein type 2 subunit alpha; assay: as §1
# T1 sequence (Q99250 whole entry): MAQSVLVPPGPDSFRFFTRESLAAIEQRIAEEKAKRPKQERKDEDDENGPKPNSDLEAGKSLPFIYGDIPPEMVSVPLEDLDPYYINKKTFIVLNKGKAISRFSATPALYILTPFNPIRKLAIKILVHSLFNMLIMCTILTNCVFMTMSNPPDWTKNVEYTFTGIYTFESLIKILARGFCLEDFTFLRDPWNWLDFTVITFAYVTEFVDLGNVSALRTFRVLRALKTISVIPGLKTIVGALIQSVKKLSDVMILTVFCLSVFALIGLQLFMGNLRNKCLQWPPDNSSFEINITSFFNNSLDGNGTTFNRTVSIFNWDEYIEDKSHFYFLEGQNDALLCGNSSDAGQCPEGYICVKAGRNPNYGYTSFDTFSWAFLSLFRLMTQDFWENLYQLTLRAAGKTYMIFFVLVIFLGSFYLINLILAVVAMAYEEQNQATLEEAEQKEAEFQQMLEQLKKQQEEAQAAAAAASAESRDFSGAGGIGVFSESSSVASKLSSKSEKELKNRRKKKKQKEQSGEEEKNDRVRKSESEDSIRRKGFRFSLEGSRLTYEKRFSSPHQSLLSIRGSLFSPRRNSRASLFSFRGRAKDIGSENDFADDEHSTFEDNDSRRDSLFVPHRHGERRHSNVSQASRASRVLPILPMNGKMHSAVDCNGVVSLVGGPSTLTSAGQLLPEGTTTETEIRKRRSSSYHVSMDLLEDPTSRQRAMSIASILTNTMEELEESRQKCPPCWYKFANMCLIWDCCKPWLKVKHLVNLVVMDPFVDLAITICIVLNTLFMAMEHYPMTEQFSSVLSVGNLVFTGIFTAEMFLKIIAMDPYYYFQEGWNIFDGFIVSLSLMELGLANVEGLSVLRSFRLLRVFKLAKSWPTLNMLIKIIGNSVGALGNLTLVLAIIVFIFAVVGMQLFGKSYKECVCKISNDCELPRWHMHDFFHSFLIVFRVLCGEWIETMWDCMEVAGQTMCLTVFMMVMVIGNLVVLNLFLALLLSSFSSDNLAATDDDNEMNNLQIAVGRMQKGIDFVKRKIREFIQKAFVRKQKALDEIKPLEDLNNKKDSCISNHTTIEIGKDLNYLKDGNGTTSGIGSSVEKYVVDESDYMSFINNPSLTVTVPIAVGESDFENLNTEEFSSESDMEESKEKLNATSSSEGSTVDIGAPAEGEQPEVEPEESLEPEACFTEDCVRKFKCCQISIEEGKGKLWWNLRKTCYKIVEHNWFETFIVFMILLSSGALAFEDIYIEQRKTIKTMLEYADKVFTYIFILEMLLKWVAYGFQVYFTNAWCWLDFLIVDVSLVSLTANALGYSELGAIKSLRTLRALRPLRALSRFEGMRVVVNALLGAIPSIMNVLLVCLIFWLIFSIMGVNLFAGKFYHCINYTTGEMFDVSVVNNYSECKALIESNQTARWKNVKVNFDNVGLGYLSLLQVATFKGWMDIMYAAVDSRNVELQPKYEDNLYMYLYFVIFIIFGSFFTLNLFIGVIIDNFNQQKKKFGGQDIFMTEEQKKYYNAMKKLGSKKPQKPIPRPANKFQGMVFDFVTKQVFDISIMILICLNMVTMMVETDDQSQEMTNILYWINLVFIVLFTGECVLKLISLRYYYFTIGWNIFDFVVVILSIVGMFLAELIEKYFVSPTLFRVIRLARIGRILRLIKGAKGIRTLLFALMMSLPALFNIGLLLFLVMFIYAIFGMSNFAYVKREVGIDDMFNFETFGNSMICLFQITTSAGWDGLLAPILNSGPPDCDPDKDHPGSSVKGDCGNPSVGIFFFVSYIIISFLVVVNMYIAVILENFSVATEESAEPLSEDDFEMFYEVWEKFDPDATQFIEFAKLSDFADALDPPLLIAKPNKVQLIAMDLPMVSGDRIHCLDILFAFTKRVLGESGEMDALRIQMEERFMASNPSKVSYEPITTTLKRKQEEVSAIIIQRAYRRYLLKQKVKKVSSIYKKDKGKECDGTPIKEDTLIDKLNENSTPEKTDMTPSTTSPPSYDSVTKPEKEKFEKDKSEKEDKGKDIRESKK
Block [1] [%],pIC50 [2],pIC50 [3],pIC50 (Rattus norvegicus),SMILES,pIC50 [4]
87,5.88,5.65,6.00,COc1ccc(/N=C(\N)Nc2ccc3c4c(cccc24)CC3)c2ccccc12,–
–,–,–,–,CN1CCN(c2ncc(-c3cc(Cl)cc(Cl)c3Cl)c(N)n2)CC1 [SIPATRIGINE],5.59
–,5.69,5.95,6.10,N=C(Nc1ccc2c3c(cccc13)CC2)Nc1ccc2c3c(cccc13)CC2,–
49,5.66,< 4.52,–,Nc1nc2ccc(OC(F)(F)F)cc2s1 [RILUZOLE],–
